Data reported in patent publication US12583815B2, “Inhibitors of YAP/TAZ-TEAD oncoproteins, synthesis and use thereof” (BRIDGENE BIOSCIENCES, INC., priority 2020, dated 2026).

What follows are compounds tested against T1, TEAD1 (Homo sapiens, UniProt P28347) (assay: TEAD1-Luciferase reporter assay (MCF-7 cell-based TEAD1-Luc assay)). Conditions: cells treated with compound overnight, luciferase chemiluminescence readout.
T1 construct: endogenous in cells; host or cells: MCF-7
Description: TEAD1-Luciferase Reporter Assay to Characterize the Pharmacological Properties of the Tead1 Covalent Inhibitors
FIG. 1 is a schematic illustration of the mechanism of TEAD1 inhibition by the disclosed compounds, which is the theoretical basis for the development of a TEAD-YAP/TAZ cell-based functional assay to characterize the pharmacological properties of the synthesized inhibitor compounds. The MCF-7 cell-based TEAD1-Luc assay for the IC50 measurement was performed as below. Compounds 2, 4, 5, and 7, representing different chemical scaffolds, were characterized. About 200 μL of culture medium was placed in each of the 10^4 cell/well in a 96-well plate. The next day the cells were treated with the synthesized compounds for overnight. The luciferase activity was measured with a chemiluminescent assay kit. Specifically, the plate was equilibrated at room temperature. […] and 50 μL of the medium was left inside. To each well was added 50 μL Luciferase reagents. The plates were gently rocked for more than about 15 minutes at room temperature. The luminescence signal was then read and recorded. Table 2 below summarizes the measured IC50 values for the disclosed compounds.

T1 sequence (P28347 whole entry): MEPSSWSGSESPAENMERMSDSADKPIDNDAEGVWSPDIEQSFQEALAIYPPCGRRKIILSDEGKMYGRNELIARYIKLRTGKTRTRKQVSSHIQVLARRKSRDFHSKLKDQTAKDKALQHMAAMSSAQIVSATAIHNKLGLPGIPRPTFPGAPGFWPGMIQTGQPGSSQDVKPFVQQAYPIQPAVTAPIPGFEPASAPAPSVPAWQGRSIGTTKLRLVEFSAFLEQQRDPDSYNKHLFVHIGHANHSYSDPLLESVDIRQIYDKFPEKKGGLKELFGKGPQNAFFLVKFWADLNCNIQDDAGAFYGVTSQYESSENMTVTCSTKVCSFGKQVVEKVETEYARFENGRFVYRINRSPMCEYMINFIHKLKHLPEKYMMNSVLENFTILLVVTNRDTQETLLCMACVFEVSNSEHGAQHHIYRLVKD

Row | SMILES | IC50
1 | C=CC(=O)Nc1ccc(-n2ncc(C(F)(F)F)n2)c(Cl)c1 [Compound 35, N-(3-chloro-4-(4-(trifluoromethyl)-2H-1,2,3-triazol-2-yl)phenyl)acrylamide] | ≤ 100 nM
2 | C=CC(=O)Nc1ccc(-c2cc(C(F)(F)F)no2)c(Cl)c1 [Compound 32, N-(3-chloro-4-(3-(trifluoromethyl)isoxazol-5-yl)phenyl)acrylamide] | ≤ 100 nM
3 | C=CC(=O)NC1CC2(CC(NCc3cccc(C(F)(F)F)c3)C2)C1 (stereo not shown) [Compound 63, N-(6-((3-(trifluoromethyl)benzyl)amino)spiro[3.3]heptan-2-yl)acrylamide] | ≤ 100 nM
4 | C=C(F)C(=O)Nc1ccc2c(c1)CCC/C2=N\OCCCCC [Compound 29, (E)-2-fluoro-N-(5-((pentyloxy)imino)-5,6,7,8-tetrahydronaphthalen-2-yl)acrylamide] | 100 to 5000 nM
5 | C=CC(=O)Nc1cccc(Oc2cccc(OC)c2)c1 [Compound 9, N-(3-(3-methoxyphenoxy)phenyl)acrylamide] | ≤ 100 nM
6 | C=CC(=O)Nc1ccc2c(c1)CCc1cn(CCCCC)nc1-2 [Compound 25] | 100 to 5000 nM
7 | C=CC(=O)N[C@H]1CC[C@H](Oc2cccc(C(F)(F)F)c2)C1 [Compound 44, N-((1S,3S)-3-(3-(trifluoromethyl)phenoxy)cyclopentyl)acrylamide] | 100 to 5000 nM
8 | C=CC(=O)Nc1ccc(-c2cc(C(F)(F)F)on2)c(C)c1 [Compound 22, N-(3-methyl-4-(5-(trifluoromethyl)isoxazol-3-yl)phenyl)acrylamide] | ≤ 100 nM
9 | C=CC(=O)Nc1cc(F)cc(Oc2cccc(C(F)(F)F)c2)c1 [Compound 36, N-(3-fluoro-5-(3-(trifluoromethyl)phenoxy)phenyl)acrylamide] | ≤ 100 nM
10 | C=CC(=O)Nc1ccc(-c2cc(C(F)(F)F)ccn2)cc1 [Compound 51, N-(4-(4-(trifluoromethyl)pyridin-2-yl)phenyl)acrylamide] | 100 to 5000 nM
11 | C=CC(=O)Nc1ccc2c(c1)OCC/C2=N\OCCCCC [Compound 16, (E)-N-(4-((pentyloxy)imino)chroman-7-yl)acrylamide] | ≤ 100 nM
12 | C=CC(=O)Nc1ccc2cc(OCCCC)ccc2c1 [Compound 17, N-(6-butoxynaphthalen-2-yl)prop-2-enamide] | ≤ 100 nM
13 | C=CC(=O)N[C@@H]1CC[C@@H](Oc2cccc(C(F)(F)F)c2)C1 [Compound 43, N-((1R,3R)-3-(3-(trifluoromethyl)phenoxy)cyclopentyl)acrylamide] | 100 to 5000 nM
14 | C=CC(=O)N[C@@H]1CC[C@H](Oc2cccc(C(F)(F)F)c2)C1 (single isomer, unassigned) [Compound 41, N-((1R*,3S*)-3-(3-(trifluoromethyl)phenoxy)cyclopentyl)acrylamide] | ≤ 100 nM
15 | C=CC(=O)Nc1ccc(-n2cc(C(F)(F)F)nn2)c(Cl)c1 [Compound 34, N-(3-chloro-4-(4-(trifluoromethyl)-1H-1,2,3-triazol-1-yl)phenyl)acrylamide] | ≤ 100 nM
16 | C=CC(=O)N1CC(Cc2ccc(C(F)(F)F)cc2)C1 [Compound 59, 1-(3-(4-(trifluoromethyl)benzyl)azetidin-1-yl)prop-2-en-1-one] | 100 to 5000 nM
17 | C=CC(=O)Nc1ccc(-c2noc(C(F)(F)F)n2)c(Cl)c1 [Compound 33, N-(3-chloro-4-(5-(trifluoromethyl)-1,2,4-oxadiazol-3-yl)phenyl)acrylamide] | ≤ 100 nM
18 | C=CC(=O)Nc1ccc(-c2cc(CCCC)on2)cc1 [Compound 26, N-(4-(5-butylisoxazol-3-yl)phenyl)acrylamide] | ≤ 100 nM

Row | SMILES | IC50
19 | C=CC(=O)Nc1cccc(Oc2ccc(C(F)(F)F)cc2)c1 [Compound 38, N-(3-(4-(trifluoromethyl)phenoxy)phenyl)acrylamide] | ≤ 100 nM
20 | C=CC(=O)Nc1cccc(Oc2cccc(C(F)(F)F)c2)c1 [Compound 4] | ≤ 100 nM
21 | C=CC(=O)Nc1ccc2c(Oc3ccc(C(F)(F)F)cn3)cccc2c1 [Compound 21, N-(5-((5-(trifluoromethyl)pyridin-2-yl)oxy)naphthalen-2-yl)acrylamide] | ≤ 100 nM
22 | C=CC(=O)Nc1ccc2c(c1)CCc1c-2noc1CCCC [Compound 27, N-(3-butyl-4,5-dihydronaphtho[1,2-c]isoxazol-7-yl)acrylamide] | 100 to 5000 nM
23 | C=CC(=O)NC1CC(COc2cccc(C(F)(F)F)c2)C1 (stereo not shown) [Compound 58, N-(3-((3-(trifluoromethyl)phenoxy)methyl)cyclobutyl)acrylamide] | ≤ 100 nM
24 | C=CC(=O)Nc1ccc2c(c1)CCC/C2=N\OCCCCC [Compound 6] | ≥ 5000 nM
25 | C=CC(=O)N1CC(Oc2ccc(C(F)(F)F)cc2)C1 [Compound 56, 1-(3-(4-(trifluoromethyl)phenoxy)azetidin-1-yl)prop-2-en-1-one] | 100 to 5000 nM
26 | C#Cc1cccc(Oc2ccccc2NC(=O)CCl)c1 [Compound 1] | ≥ 5000 nM
27 | C=CC(=O)Nc1ccc(-c2ccn(CC(F)(F)F)n2)cc1 [Compound 55, N-(4-(1-(2,2,2-trifluoroethyl)-1H-pyrazol-3-yl)phenyl)acrylamide] | 100 to 5000 nM
28 | C=CC(=O)Nc1ccc2c(c1)CCC/C2=N\OCCOCC [Compound 48, (E)-N-(5-((2-ethoxyethoxy)imino)-5,6,7,8-tetrahydronaphthalen-2-yl)acrylamide] | ≤ 100 nM
29 | C=CC(=O)N1CC(NCc2cccc(C(F)(F)F)c2)C1 [Compound 60, 1-(3-((3-(trifluoromethyl)benzyl)amino)azetidin-1-yl)prop-2-en-1-one] | 100 to 5000 nM
30 | CCCCCO/N=C1\CCc2cc(NC(=O)/C=C/CN(C)C)ccc21 [Compound 15, (E)-4-(dimethylamino)-N—((E)-1-((pentyloxy)imino)-2,3-dihydro-1H-inden-5-yl)but-2-enamide] | ≤ 100 nM
31 | C=CC(=O)NC1CCC(Oc2cccc(C(F)(F)F)c2)C1 (stereo not shown) [Compound 45, N-(3-(3-(trifluoromethyl)phenoxy)cyclopentyl)acrylamide] | 100 to 5000 nM
32 | C=CC(=O)Nc1ccc(Oc2cccc(C(F)(F)F)c2)s1 [Compound 11, N-(5-(3-(trifluoromethyl)phenoxy)thiophen-2-yl)acrylamide] | ≤ 100 nM
33 | C=CC(=O)Nc1ccc2nc(OCCCC)ccc2c1 [Compound 18, N-(2-butoxyquinolin-6-yl)acrylamide] | ≤ 100 nM
34 | C=CC(=O)NC1CC(OCc2cccc(C(F)(F)F)c2)C1 (stereo not shown) [Compound 61, N-(3-((3-(trifluoromethyl)benzyl)oxy)cyclobutyl)acrylamide] | ≤ 100 nM
35 | C=CC(=O)Nc1ccc(-c2cncc(C(F)(F)F)c2)cc1 [Compound 52, N-(4-(5-(trifluoromethyl)pyridin-3-yl)phenyl)acrylamide] | ≤ 100 nM
36 | C#CCCCO/N=C1\CCCc2cc(NC(=O)C=C)ccc21 [Compound 5] | ≥ 5000 nM

Results, then the compound that gave them:

Row | IC50 | SMILES
37 | ≤ 100 nM | C=CC(=O)Nc1cccc(Oc2csc(C(F)(F)F)c2)c1 [Compound 10, N-(3-((5-(trifluoromethyl)thiophen-3-yl)oxy)phenyl)acrylamide]
38 | ≥ 5000 nM | C#Cc1cccc(Oc2ccc(NC(=O)C=C)cc2)c1 [Compound 3]
39 | ≤ 100 nM | C=CC(=O)Nc1cc(Oc2cccc(C(F)(F)F)c2)ccc1F [Compound 37, N-(2-fluoro-5-(3-(trifluoromethyl)phenoxy)phenyl)acrylamide]
40 | 100 to 5000 nM | C#Cc1cccc(Oc2cccc(NC(=O)C=C)c2)c1 [Compound 2]
41 | ≥ 5000 nM | C=CC(=O)NC1CC2(C1)CC(Oc1cccc(C(F)(F)F)c1)C2 (stereo not shown) [Compound 64, N-(6-(3-(trifluoromethyl)phenoxy)spiro[3.3]heptan-2-yl)acrylamide]
42 | ≤ 100 nM | C=CC(=O)Nc1ccc(-c2cc(C(F)(F)F)on2)cc1 [Compound 28, N-(4-(5-(trifluoromethyl)isoxazol-3-yl)phenyl)acrylamide]
43 | ≤ 100 nM | C=CC(=O)Nc1ccc(-c2ccn(CCCCC)n2)cc1 [Compound 24, N-(4-(1-pentyl-1H-pyrazol-3-yl)phenyl)acrylamide]
44 | ≤ 100 nM | C=CC(=O)NC12CC(COc3cccc(C(F)(F)F)c3)(C1)C2 [Compound 62, N-(3-((3-(trifluoromethyl)phenoxy)methyl)bicyclo[1.1.1]pentan-1-yl)acrylamide]
45 | ≥ 5000 nM | C=CC(=O)Nc1ccc2c(c1)CC/C2=N/OCCCCC [Compound 8]
46 | 100 to 5000 nM | C=CC(=O)Nc1ccc(-c2cc(C(C)(C)C)on2)cc1 [Compound 65, N-(4-(5-(tert-butyl)isoxazol-3-yl)phenyl)acrylamide]
47 | ≤ 100 nM | C=CC(=O)Nc1ccc2c(OCCCCC)nccc2c1 [Compound 19, N-(1-(pentyloxy)isoquinolin-6-yl)acrylamide]
48 | ≤ 100 nM | C=CC(=O)Nc1ccc(-c2cc(C(F)(F)F)on2)c(Cl)c1 [Compound 23, N-(3-chloro-4-(5-(trifluoromethyl)isoxazol-3-yl)phenyl)acrylamide]
49 | ≤ 100 nM | C=CC(=O)Nc1cccc(Oc2cc(C(F)(F)F)ccn2)c1 [Compound 13, N-(3-((4-(trifluoromethyl)pyridin-2-yl)oxy)phenyl)acrylamide]
50 | 100 to 5000 nM | C=CC(=O)Nc1ccc(-c2cc(C(F)(F)F)cnn2)cc1 [Compound 53, N-(4-(5-(trifluoromethyl)pyridazin-3-yl)phenyl)acrylamide]
51 | ≤ 100 nM | C=CC(=O)Nc1ccc2c(OCCCCC)cccc2c1 [Compound 20, N-(5-(pentyloxy)naphthalen-2-yl)acrylamide]
52 | 100 to 5000 nM | C=CC(=O)Nc1ccc(-c2cc(C3CC3)on2)cc1 [Compound 30, N-(4-(5-cyclopropylisoxazol-3-yl)phenyl)acrylamide]
